Results from the supplement of paper PMC4862054.

Key:
Conditions in all cases: incubation time: 72 h
[1] = test system: CAL-148; assay: normalised viability (% of control), CellTiter-Blue; higher = more viable cells (about 100 = DMSO control)
Procedure: (§1)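 DSRT, CellTiter-Blue viability, 72 h incubation. Signal is normalised to DMSO and benzethonium chloride controls. Value is the normalised response at dose 9.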

[2] = test system: CAL-51; assay: as above
Procedure: as §1

[3] = test system: CAL-85-1; assay: as above
Procedure: as §1

[4] = test system: DU-4475; assay: as above
Procedure: as §1

[5] = test system: HDQ-P1; assay: as above
Procedure: as §1

[6] = test system: MDA-MB-453; assay: as above
Procedure: as §1

[7] = test system: BT-474; assay: normalised viability (% of control), CellTiter-Blue; higher = more viable cells (100 = DMSO, 0 = benzethonium chloride kill control)
Procedure: (§2)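 DSRT, CellTiter-Blue viability, 72 h incubation. Signal is normalised to DMSO and benzethonium chloride controls. Value is the normalised response at dose 1.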

[8] = test system: BT-549; assay: as above
Procedure: as §2

[9] = test system: CAL-120; assay: as above
Procedure: as §2

[10] = test system: CAL-148; assay: as above
Procedure: as §2

[11] = test system: CAL-51; assay: as above
Procedure: as §2

[12] = test system: CAL-85-1; assay: as above
Procedure: as §2

[13] = test system: DU-4475; assay: as above
Procedure: as §2

[14] = test system: HCC1143; assay: as above
Procedure: as §2

[15] = test system: HCC1599; assay: as above
Procedure: as §2

[16] = test system: HCC1937; assay: as above
Procedure: as §2

[17] = test system: HDQ-P1; assay: as above
Procedure: as §2

[18] = test system: Hs578T; assay: as above
Procedure: as §2

[19] = test system: MDA-MB-231; assay: as above
Procedure: as §2

[20] = test system: MDA-MB-436; assay: as above
Procedure: as §2

[21] = test system: MDA-MB-453; assay: as above
Procedure: as §2

[22] = test system: MDA-MB-468; assay: as above
Procedure: as §2

[23] = test system: MFM-223; assay: as above
Procedure: as §2

[24] = test system: SK-BR-3; assay: as above
Procedure: as §2

[25] = test system: CAL-148; assay: normalised viability (% of control), CellTiter-Blue; higher = more viable cells (about 100 = DMSO control); remark: listed apart in the source
Procedure: (§3)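 DSRT, CellTiter-Blue viability, 72 h incubation. Signal is normalised to DMSO and benzethonium chloride controls. Value is the normalised response at dose 8.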

[26] = test system: CAL-51; assay: as above; remark: listed apart in the source
Procedure: as §3

[27] = test system: CAL-85-1; assay: as above; remark: listed apart in the source
Procedure: as §3

[28] = test system: DU-4475; assay: as above; remark: listed apart in the source
Procedure: as §3

[29] = test system: HDQ-P1; assay: as above; remark: listed apart in the source
Procedure: as §3

[30] = test system: MDA-MB-453; assay: as above; remark: listed apart in the source
Procedure: as §3

Cc1ccc(C(=O)N(CCCN)[C@@H](c2oc3cc(Cl)ccc3c(=O)c2Cc2ccccc2)C(C)C)cc1 (1000 nM)
normalised viability [1]: 17.6%
normalised viability [2]: 18.8%
normalised viability [3]: 32.5%
normalised viability [4]: 7.45%
normalised viability [5]: 72.4%
normalised viability [6]: 24.6%

NC(=O)Nc1cc(-c2cccc(F)c2)sc1C(=O)N[C@H]1CCCNC1 [AZD 7762] (0.1 nM)
normalised viability [7]: 115%
normalised viability [8]: 108%
normalised viability [9]: 102%
normalised viability [10]: 104%
normalised viability [11]: 101%
normalised viability [12]: 107%
normalised viability [13]: 101%
normalised viability [14]: 115%
normalised viability [15]: 89%
normalised viability [16]: 119%
normalised viability [17]: 132%
normalised viability [18]: 124%
normalised viability [19]: 115%
normalised viability [20]: 115%
normalised viability [21]: 117%
normalised viability [22]: 111%
normalised viability [23]: 108%
normalised viability [24]: 102%

NC(=O)Nc1cc(-c2cccc(F)c2)sc1C(=O)N[C@H]1CCCNC1 [AZD 7762] (1000 nM)
normalised viability [1]: 21.4%
normalised viability [2]: 8.63%
normalised viability [3]: 22.8%
normalised viability [4]: 0.66%
normalised viability [5]: 18%
normalised viability [6]: 19.6%

NCC(=O)CCC(=O)O [Aminolevulinic acid] (1 nM)
normalised viability [7]: 108%
normalised viability [8]: 91.1%
normalised viability [9]: 86.6%
normalised viability [10]: 109%
normalised viability [11]: 107%
normalised viability [12]: 99.4%
normalised viability [13]: 107%
normalised viability [14]: 91.7%
normalised viability [15]: 85%
normalised viability [16]: 79.4%
normalised viability [17]: 110%
normalised viability [18]: 104%
normalised viability [19]: 118%
normalised viability [20]: 105%
normalised viability [21]: 98.8%
normalised viability [22]: 103%
normalised viability [23]: 96.5%
normalised viability [24]: 89%

NCC(=O)CCC(=O)O [Aminolevulinic acid] (10000 nM)
normalised viability [1]: 104%
normalised viability [2]: 83.2%
normalised viability [3]: 76.9%
normalised viability [4]: 111%
normalised viability [5]: 106%
normalised viability [6]: 87.7%

CCN(CCCOc1ccc2c(Nc3cc(CC(=O)Nc4cccc(F)c4)[nH]n3)ncnc2c1)CCOP(=O)(O)O [Barasertib] (0.1 nM)
normalised viability [7]: 109%
normalised viability [8]: 103%
normalised viability [9]: 95.5%
normalised viability [10]: 105%
normalised viability [11]: 95.4%
normalised viability [12]: 105%
normalised viability [13]: 123%
normalised viability [14]: 107%
normalised viability [15]: 105%
normalised viability [16]: 104%
normalised viability [17]: 96.5%
normalised viability [18]: 135%
normalised viability [19]: 113%
normalised viability [20]: 118%
normalised viability [21]: 93.3%
normalised viability [22]: 112%
normalised viability [23]: 102%
normalised viability [24]: 108%

CCN(CCCOc1ccc2c(Nc3cc(CC(=O)Nc4cccc(F)c4)[nH]n3)ncnc2c1)CCOP(=O)(O)O [Barasertib] (1000 nM)
normalised viability [1]: 26.3%
normalised viability [2]: 42%
normalised viability [3]: 81.2%
normalised viability [4]: 40.8%
normalised viability [5]: 96.2%
normalised viability [6]: 44.1%

CC(=O)Nc1ccc(C(=O)Nc2ccccc2N)cc1 [CI-994] (0.1 nM)
normalised viability [7]: 86.4%
normalised viability [8]: 92.6%
normalised viability [9]: 110%
normalised viability [10]: 100%
normalised viability [11]: 89.6%
normalised viability [12]: 98.3%
normalised viability [13]: 93.2%
normalised viability [14]: 105%
normalised viability [15]: 92.6%
normalised viability [16]: 102%
normalised viability [17]: 107%
normalised viability [18]: 117%
normalised viability [19]: 91.9%
normalised viability [20]: 91.2%
normalised viability [21]: 101%
normalised viability [22]: 98.9%
normalised viability [23]: 105%
normalised viability [24]: 95.5%

CC(=O)Nc1ccc(C(=O)Nc2ccccc2N)cc1 [CI-994] (1000 nM)
normalised viability [1]: 96.2%
normalised viability [2]: 95.3%
normalised viability [3]: 98.5%
normalised viability [4]: 80.7%
normalised viability [5]: 108%
normalised viability [6]: 101%

N.N.[Cl][Pt][Cl] [Cisplatin] (10000 nM)
normalised viability [1]: 105%
normalised viability [2]: 105%
normalised viability [3]: 99.5%
normalised viability [4]: 112%
normalised viability [5]: 110%
normalised viability [6]: 97.4%

C[C@@H](Oc1cc(-c2cnn(C3CCNCC3)c2)cnc1N)c1c(Cl)ccc(F)c1Cl [Crizotinib] (10000 nM)
normalised viability [1]: 48.6%
normalised viability [2]: 31.2%
normalised viability [3]: 39.5%
normalised viability [4]: 11.7%
normalised viability [5]: 39.6%
normalised viability [6]: 24.9%

C[C@]12CC[C@@H]3c4ccc(O)cc4C[C@@H](CCCCCCCCC[S+]([O-])CCCC(F)(F)C(F)(F)F)[C@H]3[C@@H]1CC[C@@H]2O (stereo partly drawn) [Fulvestrant] (10000 nM)
normalised viability [1]: 102%
normalised viability [2]: 101%
normalised viability [3]: 99.3%
normalised viability [4]: 115%
normalised viability [5]: 113%
normalised viability [6]: 66.8%

CC(C)Cn1cnc2c(N)nc3ccccc3c21 [Imiquimod] (1 nM)
normalised viability [7]: 90.6%
normalised viability [8]: 105%
normalised viability [9]: 92.5%
normalised viability [10]: 98.1%
normalised viability [11]: 101%
normalised viability [12]: 108%
normalised viability [13]: 110%
normalised viability [14]: 101%
normalised viability [15]: 109%
normalised viability [16]: 118%
normalised viability [17]: 104%
normalised viability [18]: 107%
normalised viability [19]: 85.8%
normalised viability [20]: 107%
normalised viability [21]: 108%
normalised viability [22]: 109%
normalised viability [23]: 97%
normalised viability [24]: 89.5%

CC(C)Cn1cnc2c(N)nc3ccccc3c21 [Imiquimod] (10000 nM)
normalised viability [1]: 99%
normalised viability [2]: 92%
normalised viability [3]: 100%
normalised viability [4]: 109%
normalised viability [5]: 105%
normalised viability [6]: 75.2%

CN[C@@H]1C[C@H]2O[C@@](C)([C@@H]1OC)n1c3ccccc3c3c4c(c5c6ccccc6n2c5c31)C(=O)N[C@H]4O [UCN-01] (3000 nM)
normalised viability [25]: 41.7%
normalised viability [26]: 6.6%
normalised viability [27]: 6.08%
normalised viability [28]: 1.19%
normalised viability [29]: 10.2%
normalised viability [30]: 20.2%

Clc1ccc(Nc2nnc(Cc3ccncc3)c3ccccc23)cc1 [Vatalanib] (3000 nM)
normalised viability [25]: 75%
normalised viability [26]: 104%
normalised viability [27]: 94%
normalised viability [28]: 111%
normalised viability [29]: 91.8%
normalised viability [30]: 75.2%

CCC1=C[C@@H]2CN(C1)Cc1c([nH]c3ccccc13)[C@@](C(=O)OC)(c1cc3c(cc1OC)N(C)[C@H]1[C@@](O)(C(=O)OC)[C@H](OC(C)=O)[C@]4(CC)C=CCN5CC[C@]31[C@@H]54)C2 [Vinorelbine] (3000 nM)
normalised viability [25]: 20.1%
normalised viability [26]: 16.6%
normalised viability [27]: 37.1%
normalised viability [28]: 15.8%
normalised viability [29]: 32.7%
normalised viability [30]: 39.8%

Oc1nc(-c2ccc(C(F)(F)F)cc2)nc2c1CSCC2 [XAV-939] (3000 nM)
normalised viability [25]: 89.8%
normalised viability [26]: 90.3%
normalised viability [27]: 94.1%
normalised viability [28]: 94.1%
normalised viability [29]: 76.8%
normalised viability [30]: 95.4%
